Measurements as given in PubChem BioAssay (NCI).
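Test compounds were applied to cells in 96-well plates for 48 hours at 5 doses. TGI is the concentration that stops growth completely.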

Legend:
Assay in all cases: NCI anticancer screen, dose series, 48 h
[1] = system: CAKI-1 renal
[2] = system: HOP-92 NSCLC
[3] = system: HS 578T breast
[4] = system: K-562 leukemia
[5] = system: MCF7 breast
[6] = system: NCI-H23 lung
[7] = system: OVCAR-5 ovarian
[8] = system: SK-MEL-5 melanoma
[9] = system: SN12C renal
[10] = system: UACC-257 melanoma

Row | SMILES | TGI [1] [µM] | TGI [2] [µM] | TGI [3] [µM] | TGI [4] [µM] | TGI [5] [µM] | TGI [6] [µM] | TGI [7] [µM] | TGI [8] [µM] | TGI [9] [µM] | TGI [10] [µM]
1 | C[n+]1c(-c2ccc(/C=N/Nc3ccnc(N/N=C/c4ccc(-c5cn6ccsc6[n+]5C)cc4)n3)cc2)cn2ccsc21 | 66.6 | > 100 | > 100 | 39.7 | > 100 | > 100 | > 100 | 54.5 | > 100 | 76.2
2 | O=C1Nc2ccccc2Cn2c1cc1oc(-c3ccccc3)cc12 | > 100 | 73.7 | 44.3 | > 100 | > 100 | > 100 | > 100 | > 100 | > 100 | > 100
3 | O=C(CCCCCC(=O)N1CC(CCl)c2ccc([N+](=O)[O-])cc21)N1CC(CCl)c2ccc([N+](=O)[O-])cc21 (stereo unspecified) | > 100 | > 100 | > 100 | > 100 | > 100 | > 100 | > 100 | > 100 | > 100 | > 100
4 | Cc1cn(CCCCCCC2=NCCCN2)c(=O)[nH]c1=O | > 100 | > 100 | > 100 | > 100 | > 100 | > 100 | > 100 | > 100 | > 100 | > 100
5 | CC(=O)OCc1cncn1S(=O)(=O)c1ccc(C)cc1 | > 100 | > 100 | > 100 | > 100 | > 100 | > 100 | > 100 | > 100 | > 100 | > 100
6 | CC(=O)c1ccccc1NCC(=O)Nn1cnc2ccc(S(=O)(=O)Nc3ccccc3C(C)=O)cc2c1=O | > 100 | > 100 | > 100 | > 100 | > 100 | > 100 | > 100 | – | > 100 | > 100
7 | COC(=O)C1=C(OC(=O)/C=C/c2ccccc2)C(C(=O)OC)[C@@]2(O)[C@@H](C(=O)OC)[C@H](C)C[C@@H]1[C@@H]2C(=O)OC (stereo partly specified) | 32.6 | 48 | 50.1 | > 100 | 91.4 | 48.8 | 46.1 | 87.9 | 41.7 | 90.9
8 | O=c1c2c3c(sc2nc2n1N=C(c1ccc(Cl)cc1)CS2)CCCC3 | > 100 | > 100 | > 100 | > 100 | > 100 | > 100 | > 100 | > 100 | > 100 | > 100
9 | COC(=O)[C@H]1NC(=O)CCSSC1(C)C | > 100 | > 100 | > 100 | > 100 | > 100 | > 100 | > 100 | > 100 | > 100 | > 100
10 | CCOC(=O)c1c(-c2ccc(Cl)cc2)c(C#N)c(=S)n(C2OC(COC(C)=O)C(OC(C)=O)C(OC(C)=O)C2OC(C)=O)c1-c1ccccc1 (stereo unspecified) | > 100 | 81.7 | > 100 | > 100 | > 100 | > 100 | > 100 | > 100 | > 100 | > 100
11 | Brc1ccc2c3c1[C@H]1O[C@H]1c1cccc(c1-3)[C@@H]1O[C@H]21 | 31.6 | 38.3 | 59.5 | > 100 | 73.1 | 38.7 | 37.2 | 30.2 | 33.3 | 34.2
12 | C(=N\Nc1ccc(-c2nc3ccccc3[nH]2)cc1)/c1c(-c2ccc(Cc3ccccc3)cc2)[nH]c2ccccc12 | > 59.8 | 25.7 | 23 | > 100 | > 48.8 | 59.5 | > 100 | > 52.8 | > 100 | > 89.1
13 | CSc1c(C#N)c(N)nc2c(N=Nc3ccc(Br)cc3)c(N)nn12 | 26 | 18.9 | 5.81 | 21.4 | 8.63 | 14.4 | 33.3 | 40.2 | 13.4 | 21.4
14 | Fc1ccc(N=C/C=C/Nc2ccc(F)cc2)cc1 | 28.2 | 33.1 | 47.2 | 22.1 | 28.3 | 48.4 | 25.3 | 22.3 | 28.3 | 26.8
15 | C(=Nc1ccc(-c2nc3ccccc3[nH]2)cc1)c1ccc[nH]1 | > 100 | > 100 | > 100 | > 100 | > 100 | > 100 | > 100 | > 100 | > 100 | > 100
16 | C=CC(OC(C)=O)c1ccc(OC(=O)C(C)C)c(OC)c1 (stereo unspecified) | 3.65 | 11.5 | > 80.6 | 11.6 | 5.54 | 47.7 | 6.29 | 30.1 | 15.2 | 23.5
17 | CCCCCc1nnc(NS(=O)(=O)c2ccc(NC(=O)OCC(C)C)cc2)s1 | > 100 | 77.3 | > 100 | 60.9 | > 100 | > 100 | > 100 | 63.7 | > 100 | > 100
18 | c1ccc(CN[C@]23C4C5CC6C7C5C2C7[C@@](NCc2ccccc2)(C64)N3Cc2ccccc2)cc1 (stereo partly specified) | > 100 | > 100 | > 100 | > 100 | > 100 | > 100 | > 100 | > 100 | > 100 | > 100
19 | C/C(=C\c1ccccc1)C(=O)NCc1ccc(C(=O)NCCc2ccccc2)cc1 | > 100 | 99.1 | > 100 | > 100 | > 100 | > 100 | > 100 | > 100 | > 100 | > 100
20 | COC(=O)/C=C\C(C#N)(C#N)N=Cc1ccccc1 | 7.31 | 3.74 | 36.2 | 15 | 5.73 | 25.3 | 38.7 | 28 | 26.6 | 12.8

Row | SMILES | TGI [1] [µM] | TGI [2] [µM] | TGI [3] [µM] | TGI [4] [µM] | TGI [5] [µM] | TGI [6] [µM] | TGI [7] [µM] | TGI [8] [µM] | TGI [9] [µM] | TGI [10] [µM]
21 | CCCCCCCCCCCCc1ccc(S(=O)(=O)O)cc1.[Zn+2] | > 100 | > 100 | > 100 | > 100 | > 100 | > 100 | > 100 | > 100 | > 100 | > 100
22 | COC12CCCN1c1ccn(Cc3ccccc3)c(=O)c1C2=O (stereo unspecified) | > 100 | > 100 | > 100 | > 100 | > 100 | > 100 | > 100 | > 100 | > 100 | > 100
23 | C=CCc1cc(-c2cc(CC=C)c(O)c(CN(CC)CC)c2)cc(CN(CC)CC)c1O | > 100 | 96.9 | > 100 | > 100 | > 100 | > 100 | 52.6 | 25.9 | > 100 | 68.5
24 | CCOC(=O)C[n+]1cccc(C2(c3cc4ccccc4[nH]3)OCCO2)c1 | > 100 | > 100 | > 100 | > 100 | > 100 | > 100 | > 100 | > 100 | – | > 100
25 | COc1cc(C2SC(C)C(=O)N2c2ccc(-c3csc(NS(=O)(=O)c4ccc(Cl)c(OC)c4)n3)cc2)ccc1O (stereo unspecified) | > 100 | > 100 | > 100 | > 100 | > 100 | 53.6 | > 100 | > 100 | 56.7 | > 100
26 | COC1CC(OC2C(C)OC(OC3C(C)OC(OC4C(O)CC(O[C@H]5CC[C@@]6(C)C(=CC[C@]7(O)[C@@H]6C[C@@H](OC(C)=O)[C@@]6(C)[C@]7(O)CC[C@@]6(O)C(C)=O)C5)OC4C)CC3OC)CC2OC)OC(C)C1O (stereo partly specified) | > 12.5 | > 12.5 | > 12.5 | > 12.5 | > 12.5 | > 12.5 | > 12.5 | > 12.5 | > 12.5 | > 12.5
27 | C=C1c2nc3ccccc3n2C=C(c2ccc(C)cc2)N1c1ccc(C)cc1 | > 100 | > 100 | > 100 | > 100 | > 100 | > 100 | > 100 | > 69.8 | > 100 | > 100
28 | COC(OC)C1OCC(n2cc(F)c(=O)[nH]c2=O)C1O (stereo unspecified) | > 100 | > 100 | > 100 | > 100 | > 100 | > 100 | > 100 | > 100 | > 100 | > 100
29 | COc1ccc(/C=C/C(=O)c2cc(C(C)(C)C)c(O)c(C(C)(C)C)c2)cc1OC | > 90 | > 100 | > 77.2 | > 89.6 | 32.4 | > 68.9 | > 85.8 | 20.7 | 65.5 | 23.3
30 | COc1cc2oc(=O)cc(C)c2cc1O | > 100 | > 100 | > 100 | > 100 | > 100 | > 100 | > 100 | > 100 | > 100 | > 100
31 | O=[N+]([O-])c1ccc(N/N=C/CC(O)(C(F)(F)F)C(F)(F)F)c([N+](=O)[O-])c1 | > 10 | 6.59 | 8.16 | > 10 | > 10 | > 10 | – | > 10 | > 10 | > 10
32 | CSc1cc(-c2ccccn2)nc(-c2ccccn2)c1 | 1.81 | 2.91 | 48.9 | > 100 | 10.1 | 7.25 | 9.46 | 4.07 | 13.4 | 15.3
33 | O=c1oc2ccc([N+](=O)[O-])cc2c(Nc2ccc3c(c2)Sc2ccccc2O3)c1[N+](=O)[O-] | 50.6 | 41.6 | 90.9 | 88.3 | 56.7 | 39.1 | 47.2 | 41.1 | 51.2 | 69
34 | CC1=NN(C(=O)CC(=O)Nc2ccccc2Cl)C(=O)C1N=Nc1ccc(S(=O)(=O)c2ccc(N=NC3C(=O)N(C(=O)CC(=O)Nc4ccccc4Cl)N=C3C)cc2)cc1 (stereo unspecified) | > 100 | > 100 | > 100 | > 100 | > 100 | > 100 | > 100 | > 100 | > 100 | > 100
35 | CCCC(O)c1cn(C(NC(=O)c2ccccc2)P(=O)(OCC)OCC)nn1 (stereo unspecified) | > 100 | > 100 | > 100 | > 100 | > 100 | > 100 | – | > 100 | > 100 | > 100
36 | Cc1ccc(NC(=O)C(Cc2c[nH]c3ccccc23)NC(=O)Oc2ccccc2)cc1C (stereo unspecified) | > 100 | > 100 | > 100 | > 100 | > 100 | > 100 | > 100 | > 100 | > 100 | > 100
37 | CCCCCc1cc2cc3c(c(O)c2c(=O)[nH]1)C1(CCC3)C(O)=c2c(=O)c3c(=O)cc(OC)c(=O)c=3c(=O)c2=C1O (stereo unspecified) | 2.8 | 1.3 | 5.42 | > 18.7 | 2.06 | 3.37 | 4.47 | 1.69 | 3.91 | 4.64
38 | O=[N+]([O-])c1ccc(C(Nc2ccccc2)P(c2ccccc2)c2ccccc2)cc1 (stereo unspecified) | > 100 | > 100 | > 100 | > 100 | > 100 | > 100 | > 100 | > 100 | > 100 | > 100
39 | CC(=O)OC(Cc1ccc2ccccc2n1)(C(F)(F)F)C(F)(F)F | 2.96 | 0.933 | 6.58 | > 100 | 0.559 | 6.95 | 10.2 | 1.38 | 7.27 | 0.328
40 | CCCCCCCC(CC(=O)NC(CO)C(=O)NC(CO)CC(C)C)OC(=O)CC(CCCCCCC)OC(=O)CC(CCCCCCC)OC1OC(C)C(O)C(OC2OC(C)C(O)C(O)C2OC(C)=O)C1O (stereo unspecified) | 28.3 | 22 | 19.1 | 16.8 | 23.8 | 22 | 21.9 | 21.7 | 16.8 | 13.5
